{
  "source": "patent US8337869B2",
  "about": "“Analgesic cream” (priority 2007, dated 2012)",
  "key": {"PGE2": {"tested_on": "PGE2", "test": "Inhibition of PGE2 production by DPG", "settings": "concentrations of DPG contained in Theraflex"}, "LTB4": {"tested_on": "LTB4", "test": "Inhibition of LTB4 production by DPG", "settings": "concentrations of DPG contained in Theraflex"}},
  "data": [
    {"smiles": "CC1(C)[C@@H](O[C@H]2O[C@H](C(=O)[O-])[C@@H](O)[C@H](O)[C@H]2O[C@@H]2O[C@H](C(=O)[O-])[C@@H](O)[C@H](O)[C@H]2O)CC[C@]2(C)[C@H]3C(=O)C=C4[C@@H]5C[C@@](C)(C(=O)O)CC[C@]5(C)CC[C@@]4(C)[C@]3(C)CC[C@@H]12.[K+].[K+]", "note": "[DPG, dipotassium glycyrrhizinate]", "values": [
      {"measurement": "inhibition of production of PGE2", "setting": "PGE2", "value": "greater than 50%"},
      {"measurement": "inhibition of production of LTB4", "setting": "LTB4", "value": "greater than 50%"}
    ]}
  ]
}
